Test results from ChEMBL document CHEMBL4431311, “Endothelin-Receptor Antagonists beyond Pulmonary Arterial Hypertension: Cancer and Fibrosis” (J Med Chem, 2016).
Blank lines part the entries; values can stand above or below the molecule they belong to.

Key:
[1] = molecular target: T1, Endothelin-1 receptor (Homo sapiens) (UniProt P25101); assay: Binding affinity to ET-A receptor (unknown origin) assessed as dissociation half life
T1 sequence (whole entry): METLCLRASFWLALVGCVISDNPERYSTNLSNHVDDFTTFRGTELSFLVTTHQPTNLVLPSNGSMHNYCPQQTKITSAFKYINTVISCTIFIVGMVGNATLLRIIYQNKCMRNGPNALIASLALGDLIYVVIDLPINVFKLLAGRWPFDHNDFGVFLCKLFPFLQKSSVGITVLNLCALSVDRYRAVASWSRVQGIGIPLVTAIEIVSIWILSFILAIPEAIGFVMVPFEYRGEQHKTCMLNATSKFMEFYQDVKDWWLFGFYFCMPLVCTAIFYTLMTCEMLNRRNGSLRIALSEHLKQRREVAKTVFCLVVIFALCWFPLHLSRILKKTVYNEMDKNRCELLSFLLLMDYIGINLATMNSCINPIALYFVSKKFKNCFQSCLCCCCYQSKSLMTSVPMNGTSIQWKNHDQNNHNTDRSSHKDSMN

Endothelin-1 receptor [2] = molecular target: T2, Endothelin-1 receptor (Homo sapiens, UniProt P25101); assay: Displacement of [125I]ET-1 from human ET-A receptor expressed in CHO cell membrane incubated for 2 hrs; format: cell membranes
T2 sequence (P25101 whole entry): T1 sequence (whole entry)

[3] = molecular target: T3, Endothelin receptor type B (Homo sapiens, UniProt P24530); assay: Displacement of [125I]ET-1 from ET-B receptor in human Girardi heart cells incubated for 4 hrs by gamma counting method; format: cell-based
T3 sequence (P24530 whole entry): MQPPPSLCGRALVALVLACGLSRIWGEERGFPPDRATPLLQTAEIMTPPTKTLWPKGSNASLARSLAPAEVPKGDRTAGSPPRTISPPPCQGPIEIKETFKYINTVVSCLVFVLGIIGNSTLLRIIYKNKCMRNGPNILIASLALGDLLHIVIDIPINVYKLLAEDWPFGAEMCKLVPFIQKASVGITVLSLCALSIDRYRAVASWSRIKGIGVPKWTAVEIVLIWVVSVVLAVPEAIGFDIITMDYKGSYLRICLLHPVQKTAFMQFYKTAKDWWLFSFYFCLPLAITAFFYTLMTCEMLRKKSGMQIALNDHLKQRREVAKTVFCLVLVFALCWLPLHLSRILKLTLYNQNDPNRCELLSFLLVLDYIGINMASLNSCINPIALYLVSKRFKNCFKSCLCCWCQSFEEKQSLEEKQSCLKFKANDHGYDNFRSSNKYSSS

Endothelin-1 receptor [4] = molecular target: T2, Endothelin-1 receptor; assay: Displacement of [125I]ET-1 from ET-A receptor in human SK-N-MC cells incubated for 4 hrs by gamma counting method; format: cell-based

- T1/2 [1]: 1 min
Compound: COc1ccccc1Oc1c(NS(=O)(=O)c2ccc(C(C)(C)C)cc2)nc(-c2ncccn2)nc1OCCO

- IC50 (Endothelin-1 receptor [2]): 94 nM
Compound: Cc1cc(C)cc(C(=O)N(C)[C@H](Cc2ccc(-c3ccccc3)cc2)C(=O)N[C@@H](Cc2c[nH]c3ccccc23)C(=O)O)c1

- IC50 [3]: 1.2 nM
- IC50 (Endothelin-1 receptor [4]): 1300 nM
Compound: CCCC[C@H](NC(=O)[C@@H](Cc1cn(C(=O)OC)c2ccccc12)NC(=O)[C@@H](CC(C)(C)C)NC(=O)N1[C@H](C)CCC[C@@H]1C)C(=O)O
